# Reference: patent publication US11427553B2, “Dihydrooxadiazinones” (Bayer Aktiengesellschaft, priority 2017, dated 2022)
# What was measured:
# HeLa cells = test: Assay 1 cell proliferation measurement (CTG, 72 h), HeLa; format: cell-based, human; details: Homo sapiens, HeLa; Assay 1, 72 h, Cell Titer Glo; read-out: HeLa IC50 [nM] (Cervical cancer)
# Procedure, shortened: (§1)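 Cells were plated, grown overnight at 37 °C, then treated 72 h with a 10-step 2.5-fold dilution series from 100 nM maximum final (0.3% DMSO vehicle). Viability was read by CellTiter-Glo luminescence. IC50 from a 4-parameter fit, normalised to a 0 h plate (maximum inhibition) and DMSO control (minimum inhibition).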
# SK-MEL-3 cells = test: Assay 1 cell proliferation measurement (CTG, 72 h), SK-MEL-3; format: cell-based, human; details: Homo sapiens, SK-MEL3; Assay 1, 72 h, Cell Titer Glo; read-out: SK-MEL-3 IC50 [nM] (melanoma)
# Procedure, shortened: as §1
# human full length PDE3A = human full length PDE3A (Homo sapiens (Human), UniProt Q14432); test: Assay 4 PDE3A enzyme inhibition (3H-cAMP SPA); format: biochemical; details: Sf9 cell extract
# Chain of human full length PDE3A (Q14432 whole entry): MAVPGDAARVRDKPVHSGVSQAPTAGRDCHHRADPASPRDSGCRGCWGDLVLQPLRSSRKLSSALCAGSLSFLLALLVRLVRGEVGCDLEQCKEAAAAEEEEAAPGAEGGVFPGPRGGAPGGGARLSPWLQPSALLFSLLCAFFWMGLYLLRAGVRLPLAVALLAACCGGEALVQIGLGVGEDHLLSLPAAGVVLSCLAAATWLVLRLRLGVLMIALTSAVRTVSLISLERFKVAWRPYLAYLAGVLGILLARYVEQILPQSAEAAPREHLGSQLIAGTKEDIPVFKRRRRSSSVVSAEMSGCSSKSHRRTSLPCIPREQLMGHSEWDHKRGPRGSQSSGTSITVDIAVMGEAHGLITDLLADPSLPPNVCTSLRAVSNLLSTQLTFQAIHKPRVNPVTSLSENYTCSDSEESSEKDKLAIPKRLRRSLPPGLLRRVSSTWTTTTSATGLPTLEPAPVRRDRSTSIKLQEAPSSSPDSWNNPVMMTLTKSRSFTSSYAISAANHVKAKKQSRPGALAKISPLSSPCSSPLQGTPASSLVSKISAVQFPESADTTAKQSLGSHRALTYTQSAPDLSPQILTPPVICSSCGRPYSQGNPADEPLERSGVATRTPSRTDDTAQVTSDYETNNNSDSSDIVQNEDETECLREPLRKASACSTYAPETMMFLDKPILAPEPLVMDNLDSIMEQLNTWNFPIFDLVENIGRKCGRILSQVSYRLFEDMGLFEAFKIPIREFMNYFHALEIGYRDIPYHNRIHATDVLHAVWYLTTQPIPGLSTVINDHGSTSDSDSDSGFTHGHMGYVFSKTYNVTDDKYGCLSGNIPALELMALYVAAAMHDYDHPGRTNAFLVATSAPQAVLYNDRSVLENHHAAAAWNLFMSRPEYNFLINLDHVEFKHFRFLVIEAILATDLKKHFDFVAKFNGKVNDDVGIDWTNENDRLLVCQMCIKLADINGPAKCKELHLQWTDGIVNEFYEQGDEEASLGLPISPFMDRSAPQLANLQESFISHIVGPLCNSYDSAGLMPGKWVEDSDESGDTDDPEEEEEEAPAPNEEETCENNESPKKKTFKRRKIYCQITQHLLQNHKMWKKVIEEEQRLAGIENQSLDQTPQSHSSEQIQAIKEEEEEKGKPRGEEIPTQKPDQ
# Procedure, shortened: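 Enzyme: Sf9 extract with overexpressed full-length PDE3A; substrate [8-3H]cAMP, 0.025 μCi/well; 60 min, room temperature, Tris/HCl pH 7.5 buffer with MgCl2, EDTA, BSA.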
# human full length PDE3B = human full length PDE3B (Homo sapiens (Human), UniProt Q13370); test: Assay 5 PDE3B enzyme inhibition (3H-cAMP SPA); format: biochemical; details: Sf9 cell extract
# Chain of human full length PDE3B (Q13370 whole entry): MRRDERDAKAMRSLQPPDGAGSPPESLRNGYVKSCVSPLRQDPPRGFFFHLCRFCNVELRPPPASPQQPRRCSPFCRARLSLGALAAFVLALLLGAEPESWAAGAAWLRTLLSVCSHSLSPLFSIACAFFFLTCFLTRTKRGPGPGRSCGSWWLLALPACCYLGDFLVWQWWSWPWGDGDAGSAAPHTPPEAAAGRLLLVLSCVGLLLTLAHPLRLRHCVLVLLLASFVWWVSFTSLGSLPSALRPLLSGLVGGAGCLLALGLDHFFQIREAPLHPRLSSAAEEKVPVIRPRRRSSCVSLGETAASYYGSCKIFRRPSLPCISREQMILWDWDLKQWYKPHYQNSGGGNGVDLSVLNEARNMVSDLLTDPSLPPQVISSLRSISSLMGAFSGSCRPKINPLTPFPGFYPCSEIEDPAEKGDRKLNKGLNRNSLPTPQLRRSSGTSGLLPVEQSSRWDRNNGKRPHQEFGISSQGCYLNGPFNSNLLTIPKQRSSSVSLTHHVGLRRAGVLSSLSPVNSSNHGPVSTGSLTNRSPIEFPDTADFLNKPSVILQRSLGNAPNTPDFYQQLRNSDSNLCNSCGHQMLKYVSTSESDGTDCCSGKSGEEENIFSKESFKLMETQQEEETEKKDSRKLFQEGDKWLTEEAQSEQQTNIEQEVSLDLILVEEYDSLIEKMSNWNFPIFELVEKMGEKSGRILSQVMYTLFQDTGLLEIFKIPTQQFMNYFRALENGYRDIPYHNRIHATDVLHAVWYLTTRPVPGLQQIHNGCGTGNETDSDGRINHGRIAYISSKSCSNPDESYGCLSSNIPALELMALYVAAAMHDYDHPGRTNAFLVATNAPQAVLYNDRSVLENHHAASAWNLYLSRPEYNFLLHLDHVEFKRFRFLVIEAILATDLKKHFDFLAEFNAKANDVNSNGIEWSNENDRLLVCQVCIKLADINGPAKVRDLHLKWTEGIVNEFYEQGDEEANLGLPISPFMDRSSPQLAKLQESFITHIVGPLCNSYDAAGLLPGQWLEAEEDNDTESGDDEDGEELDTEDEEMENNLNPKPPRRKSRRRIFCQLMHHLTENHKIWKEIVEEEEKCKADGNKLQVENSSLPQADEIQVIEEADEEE
# Procedure, shortened: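 Hydrolysis of tritiated cAMP by Sf9-expressed full-length human PDE3B proceeded 60 min at room temperature in Tris buffer pH 7.5 containing Mg2+, EDTA and BSA, with enzyme dilution keeping substrate consumption below 70%. IC50 derived from percent activity versus log compound concentration.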
# [1] = Assay 6 in vitro metabolic stability in cryopreserved human hepatocytes (CL, Fmax); format: in vitro ADME; details: 1 μM test compound; for Clblood: hepatic in vivo blood clearance calculated (well-stirred) from half-life in cryopreserved human hepatocytes; for Fmax: maximal oral bioavailability calculated from half-life in cryopreserved human hepatocytes
# Protocol: Assay 6 Method for Human Cryo Hepatocytes:
# Investigation of In Vitro Metabolic Stability in Cryopreserved Human Hepatocytes (Including Calculation of Hepatic In Vivo Blood Clearance (CL) and Maximal Oral Bioavailability (Fmax))
# Cryopreserved Hepatocytes (e.g. purchased from Celsis InVitroTechnologies) were briefly thawed, washed with 45 mL pre-warmed in in vitro GRO HT medium and centrifuged for 5 min at 50×g. The cell pellet was resuspended in 5 ml of Krebs-Henseleit […] (KHB). Cell viability was determined by trypan blue exclusion.
# For the metabolic stability assay liver cells were distributed in WME containing 5% FCS to glass vials at a density of 1.0×10^6 vital cells/ml. The test compound was added to a final concentration of 1 μM. During incubation, the hepatocyte suspensions were continuously shaken at 580 rpm and aliquots were taken at 2, 8, 16, 30, 45 and 90 min, to which equal volumes of cold methanol were immediately added. Samples were frozen at −20° C. over night, after subsequently centrifuged for 15 minutes at 3000 rpm and the supernatant was analyzed with an Agilent 1290 HPLC-system with LCMS/MS detection.
# The half-life of a test compound was determined from the concentration-time plot. From the half-life the intrinsic clearances were calculated. Together with the additional parameters liver blood flow, amount of liver cells in vivo and in vitro. The hepatic in vivo blood clearance (CL) and the maximal oral bioavailability (Fmax) was calculated.
IC50 (HeLa cells) [nM],IC50 (SK-MEL-3 cells) [nM],IC50 (human full length PDE3A) [nM],IC50 (human full length PDE3B) [nM],Clblood [1] [mL/min/kg],Fmax [1] [%],Structure (SMILES)
2,4,72,81,5.33,76,"O=C1NN=C(c2ccc(-c3ccc(F)cc3F)c(F)c2)CO1 [Example 111, 5-(2,2′,4′-Trifluoro[1,1′-biphenyl]-4-yl)-3,6-dihydro-2H-1,3,4-oxadiazin-2-one]"
12,,,,14.2,35,"CCC(CNc1ccc(C2=NNC(=O)OC2)cc1C(F)(F)F)OC (stereo not drawn) [Example 281, 5-{4-[(2-methoxybutyl)amino]-3-(trifluoromethyl)phenyl}-3,6-dihydro-2H-1,3,4-oxadiazin-2-one]"
1,2,37,88,10.2,54,"CC1(O)CN(c2ccc(C3=NNC(=O)OC3)cc2C(F)(F)F)C1 [Example 203, 5-[4-(3-Hydroxy-3-methylazetidin-1-yl)-3-(trifluoromethyl)phenyl]-3,6-dihydro-2H-1,3,4-oxadiazin-2-one]"
1,1,58,80,8.5,61,"COC/C=C/c1ccc(C2=NNC(=O)OC2)cc1C(F)(F)F [Example 140, 5-{4-[3-Methoxyprop-1-en-1-yl]-3-(trifluoromethyl)phenyl}-3,6-dihydro-2H-1,3,4-oxadiazin-2-one]"
2,5,210,200,15.7,29,"O=C1NN=C(c2ccc(-c3ccc(Cl)cc3)c(C(F)F)c2)CO1 [Example 199, 5-[4′-Chloro-2-(difluoromethyl)[1,1′-biphenyl]-4-yl]-3,6-dihydro-2H-1,3,4-oxadiazin-2-one]"
4,7,210,120,10.3,53,"Cc1cc(F)ccc1-c1ccc(C2=NNC(=O)OC2)cc1F [Example 162, 5-(2,4′-Difluoro-2′-methyl[1,1′-biphenyl]-4-yl)-3,6-dihydro-2H-1,3,4-oxadiazin-2-one]"
2,3,165,200,5.83,74,"CC(C)(C)Nc1ccc(C2=NNC(=O)OC2)cc1C(F)(F)F [Example 224, 5-[4-(tert-Butylamino)-3-(trifluoromethyl)phenyl]-3,6-dihydro-2H-1,3,4-oxadiazin-2-one]"
37,63,240,480,1.2,95,"NC(=O)CNc1ccc(C2=NNC(=O)OC2)cc1C(F)(F)F [Example 256, N^2-[4-(2-Oxo-3,6-dihydro-2H-1,3,4-oxadiazin-5-yl)-2-(trifluoromethyl)phenyl]glycinamide]"
15,33,440,240,3.17,85,"Cc1cc(F)ccc1-c1ccc(C2=NNC(=O)OC2)cc1C [Example 9, 5-(4′-Fluoro-2,2′-dimethylbiphenyl-4-yl)-3,6-dihydro-2H-1,3,4-oxadiazin-2-one]"
5,11,88,100,,,"O=C1NN=C(c2ccc(-c3ccc(F)c(F)c3F)c(F)c2)CO1 [Example 99, 5-(2,2′,3′,4′-Tetrafluoro[1,1′-biphenyl]-4-yl)-3,6-dihydro-2H-1,3,4-oxadiazin-2-one]"
29,53,610,490,,,"O=C1NN=C(c2ccc(Cl)c(C(F)(F)F)c2)CO1 [Intermediate 64, 5-[4-Chloro-3-(trifluoromethyl)phenyl]-3,6-dihydro-2H-1,3,4-oxadiazin-2-one]"
8,16,33,83,,,"O=C1NN=C(c2ccc(-c3ccc(F)nc3)c(F)c2)CO1 [Example 77, 5-[3-Fluoro-4-(6-fluoropyridin-3-yl)phenyl]-3,6-dihydro-2H-1,3,4-oxadiazin-2-one]"
1,2,28,56,,,"CC(C)CNc1ccc(C2=NNC(=O)OC2)cc1C(F)(F)F [Example 221, 5-{4-[(2-Methylpropyl)amino]-3-(trifluoromethyl)phenyl}-3,6-dihydro-2H-1,3,4-oxadiazin-2-one]"
2,4,28,39,,,"N#Cc1ccc(-c2ccc(C3=NNC(=O)OC3)cc2F)cc1 [Example 101, 2′-Fluoro-4′-(2-oxo-3,6-dihydro-2H-1,3,4-oxadiazin-5-yl)[1,1′-biphenyl]-4-carbonitrile]"
18,40,50,110,,,"Cc1ncccc1-c1ccc(C2=NNC(=O)OC2)cc1F [Example 96, 5-[3-Fluoro-4-(2-methylpyridin-3-yl)phenyl]-3,6-dihydro-2H-1,3,4-oxadiazin-2-one]"
1,3,52,88,,,"CC(C)Nc1ccc(C2=NNC(=O)OC2)cc1C(F)(F)F [Example 137, 5-[4-(Propan-2-ylamino)-3-(trifluoromethyl)phenyl]-3,6-dihydro-2H-1,3,4-oxadiazin-2-one]"
1,2,26,24,,,"O=C1NN=C(c2ccc(NCC3CC3)c(C(F)(F)F)c2)CO1 [Example 212, 5-{4-[(Cyclopropylmethyl)amino]-3-(trifluoromethyl)phenyl}-3,6-dihydro-2H-1,3,4-oxadiazin-2-one]"
10,22,34,66,,,"Cc1ccc(-c2ccc(C3=NNC(=O)OC3)cc2C(F)F)cn1 [Example 200, 5-[3-(Difluoromethyl)-4-(6-methylpyridin-3-yl)phenyl]-3,6-dihydro-2H-1,3,4-oxadiazin-2-one]"
5,9,100,110,,,"O=C1NN=C(c2ccc(N3CCC(F)CC3)c(F)c2)CO1 [Example 6, 5-[3-Fluoro-4-(4-fluoropiperidin-1-yl)phenyl]-3,6-dihydro-2H-1,3,4-oxadiazin-2-one]"
7,13,50,100,,,"O=C1NN=C(c2ccc(-c3ccncc3)c(F)c2)CO1 [Example 93, 5-[3-Fluoro-4-(pyridin-4-yl)phenyl]-3,6-dihydro-2H-1,3,4-oxadiazin-2-one]"
2,5,110,140,,,"O=C1NN=C(c2ccc(-c3ccccc3)c(F)c2)CO1 [Example 89, 5-(2-Fluorobiphenyl-4-yl)-3,6-dihydro-2H-1,3,4-oxadiazin-2-one]"
14,21,68,71,,,"CC1(CNc2ccc(C3=NNC(=O)OC3)cc2C(F)(F)F)COC1 [Example 213, 5-[4-{[(3-Methyloxetan-3-yl)methyl]amino}-3-(trifluoromethyl)phenyl]-3,6-dihydro-2H-1,3,4-oxadiazin-2-one]"
23,40,170,280,,,"Nc1ccccc1-c1ccc(C2=NNC(=O)OC2)cc1F [Example 102, 5-(2′-Amino-2-fluoro[1,1′-biphenyl]-4-yl)-3,6-dihydro-2H-1,3,4-oxadiazin-2-one]"
27,47,> 1000,> 1000,,,"O=C1NN=C(c2ccc(-c3ccccn3)c(C(F)(F)F)c2)CO1 [Example 160, 5-[4-(Pyridin-2-yl)-3-(trifluoromethyl)phenyl]-3,6-dihydro-2H-1,3,4-oxadiazin-2-one]"
